The subject of one assay is HCT116 cells. The assay is described as follows: Activity of inhibiting cell growth, HCT116 (sulforhodamine B). Type of assay: cell-based. The note with it: Homo sapiens, HCT-116, 72 h, cell growth inhibition, 3 days incubation. The procedure:
(§1) Activity of Inhibiting Cell Growth
(§2) • (1) Method of cell culture
(§3) Clinical separative cancer cells HCT116 were cultured in Dulbecco′ modified Eagle's medium with 10% Fetal Bovine Serum, and clinical separative cancer cells MKN-1 were cultured in RPMI1640 medium added 10% Fetal Bovine Serum. Both cells were cultured at 37° C., under 5% CO2 and saturated steam. • (2) Determination of activity of inhibiting cell growth
(§4) The activity of inhibiting cell growth was measured using the modified method of Skehan's method (J. Natl. Cancer Inst. Vol.82, p.1107-1112, 1990), and so on. One hundred μL each of the culture medium containing 1×10^3 HCT116 or MKN-1 as living cells was pipetted to 96-well dish and cultured over night. […] Then, the diluted compounds or DMSO as the control, was added to the medium. One hundred μL of the medium added with the diluted drug solutions or DMSO was added to the cells cultured in 96-well dish, and was incubated for further 3 days.
(§5) To each well, 50 μL of trichloroacetic acid (50%) was added to fix the cells. The cells were stained using 0.4% sulforhodamine B. Sulforhodamine B was extracted with 10 mM tris buffer, and the optical density at 560 nm was compared with that of control at 450 nm.

For a further assay, the system named is MKN-1 cells. In words: Activity of inhibiting cell growth, MKN-1 (sulforhodamine B). It is filed as cell-based. Conditions: Homo sapiens, MKN-1, 72 h, cell growth inhibition, 3 days incubation. On the procedure:
as §1, §2, §3, §4, §5

The next assay addresses cyclin D2-Cdk4 (Homo sapiens, UniProt P11802). The assay is described as follows: Enzyme assay of cyclin D2-Cdk4 (33P-ATP phosphorylation of RB peptide substrate). Type of assay: biochemical. Conditions: Table 1, second value column (head repeats cyclin D1-Cdk4); 50 μM ATP, 100 μM peptide substrate, 30° C., 45 min.
A further assay addresses T1, cyclin D3-Cdk6 (Homo sapiens, UniProt Q00534).
T1 construct: made in house; host or cells: Sf9 insect cells, baculovirus co-infection
In words: Enzyme assay of cyclin D3-Cdk6 (33P-ATP phosphorylation of peptide substrate). Type of assay: biochemical. The note with it: 100 μM peptide substrate, 50 μM ATP, 30° C. An excerpt: • (1) Preparation of cyclin D1-Cdk6 and cyclin D3-Cdk6
As the same method of preparing cyclin D1-Cdk4, cDNA of Cdk6 and its activator cyclin D1 or D3 was recombined with baculovirus-expression vector to make recombinant baculovirus. This was co-infected to insect cell Sf9 to express an active complex of cyclin D1-Cdk6 or cyclin D3-Cdk6. The cells were recovered and solubilized and purified by HPLC columnchromatography. • (2) Enzyme assay of cyclin D1-Cdk6 and cyclin D3-Cdk6.
A peptide substrate used for cyclin D1-Cdk6 was synthetic peptide ([…] (SEQ ID No. 2) and that used for cyclin D3-Cdk6 was synthetic peptide ([…] (SEQ ID No. 3) (The EMBO J. vol. 15, p. 7060-7069, 1996).
The reaction was carried out using the modified procedure of Kitagawa's method (Oncogene, vol.7, p.1067-1074, 1992). The volume of the reaction solution was 21.1 μL. Purified cyclin D1-Cdk6 in R buffer and 400 μM peptide substrate or cyclin D3-Cdk6 and 100 μM pipetide substrate, unlabeled ATP (50 μM) and 1 μCi ATP labeled with γ-33P(2000-4000 Ci/mmole) were added to the reaction mixture. The mixture was incubated at 30° C. for 20 or 45 min. Then, 10 μL of phosphate buffer (350 mM) was added to stop the reaction. The peptide substrate was absorbed to P81 paper and its radioactivity was measured by a liquid scintillation counter. […]

Data on 2 compounds can be found in patent publication US6958333B1, “Biarylurea derivatives” (Banyu Pharmaceutical Co., Ltd., priority 1999, dated 2005).

Molecules are shown by their SMILES.

T1 sequence (Q00534 whole entry): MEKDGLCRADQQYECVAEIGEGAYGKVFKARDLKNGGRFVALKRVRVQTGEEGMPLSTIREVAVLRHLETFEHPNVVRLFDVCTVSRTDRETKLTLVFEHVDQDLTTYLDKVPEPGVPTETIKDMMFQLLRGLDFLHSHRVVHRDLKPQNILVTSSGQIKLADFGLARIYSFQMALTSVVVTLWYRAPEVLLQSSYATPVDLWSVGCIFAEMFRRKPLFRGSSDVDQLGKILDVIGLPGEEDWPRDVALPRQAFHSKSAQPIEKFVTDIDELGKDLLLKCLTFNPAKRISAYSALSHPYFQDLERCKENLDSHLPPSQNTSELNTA
T1 sequence (P30281 whole entry partner): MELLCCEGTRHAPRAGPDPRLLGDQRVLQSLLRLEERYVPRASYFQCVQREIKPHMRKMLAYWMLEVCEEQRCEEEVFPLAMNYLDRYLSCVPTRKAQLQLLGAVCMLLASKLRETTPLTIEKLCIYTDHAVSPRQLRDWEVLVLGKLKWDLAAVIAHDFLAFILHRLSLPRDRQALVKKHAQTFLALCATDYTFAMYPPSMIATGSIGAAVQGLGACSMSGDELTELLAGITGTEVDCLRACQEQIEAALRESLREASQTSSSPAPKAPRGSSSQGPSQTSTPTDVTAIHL
Sequence of cyclin D2-Cdk4 (P11802 whole entry): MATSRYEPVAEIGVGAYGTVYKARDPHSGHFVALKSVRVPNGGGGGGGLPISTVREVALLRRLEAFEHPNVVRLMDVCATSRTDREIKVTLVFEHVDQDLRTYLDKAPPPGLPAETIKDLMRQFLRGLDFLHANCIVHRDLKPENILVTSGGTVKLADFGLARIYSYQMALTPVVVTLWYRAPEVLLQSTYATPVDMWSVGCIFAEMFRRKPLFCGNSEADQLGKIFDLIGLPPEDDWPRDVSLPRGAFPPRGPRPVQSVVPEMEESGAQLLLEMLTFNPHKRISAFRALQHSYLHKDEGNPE
Text for cyclin D2-Cdk4: • (1) Preparation of cyclin D1-Cdk4 and cyclin D2-Cdk4
cDNA of Cdk4 and its activator cyclin D1 or D2 was subcloned into a baculovirus-expression vector to make recombinant baculovirus and then, they are co-infected to insect cell Sf9 to express an active complex of cyclin D1-Cdk4 or cyclin D2-Cdk4. The cells were recovered and solubilized and purified by HPLC columnchromatography (The the enzyme are EMBO J. vol.15, p.7060-7069, 1996). • (2) Enzyme assay of cyclin D1-Cdk4 and cyclin D2-Cdk4
The reaction was carried out using the modified procedure of Kitagawa's method (Oncogene, vol.7, p.1067-1074, 1992). The volume of the reaction solution was 21.1 μL. The reaction buffer (R buffer) consisted of 20 mM Tri-HCl buffer (pH7.4)/10 mM MgCl2/4.5 mM 2-mercaptoethanol/1 mM ethyleneglycolbis(β-aminoethylether)-N,N,N′,N′-tetracetic acid (EGTA). Purified cyclin D1-Cdk4 or D2-Cdk4, 100 μM peptide substrate, 50 μM unlabeled ATP and ATP labeled with 1 μCi γ-33P(2000-4000 Ci/mmole) were added to the reaction mixture. The mixture was incubated at 30° C. for 45 min. 10 μL of phosphate buffer (350 mM) was added to stop the reaction. The peptide substrate was absorbed to P81 paper and its radioactivity was measured by a liquid scintillation counter. ATP labeled with γ-33P was purchased from Daiich Chemicals, Ltd. […]

The term IC50 denotes the concentration needed to halve the response being measured. Lower therefore signals higher potency. With `CN1CC[C@H](c2c(O)cc(O)c3c(=O)cc(-c4ccccc4Cl)oc23)[C@H](O)C1` (racemic) [(±)flavopiridol, flavopiridol], the IC50 in the assay on HCT116 cells was 0.15 µM; with MKN-1 cells, 0.87 µM.
For the compound `O=C(Nc1cc(C2CCN(Cc3ccccc3)C2)ccn1)Nc1cccc2c1C1CCCN1C2=O` (stereo not shown) [Working Example No. 165, N′-(pyrrolidino[2,1-b]isoindolin-4-on-8-yl)-N-(4-(N-benzylpyrrolidin-3-yl)pyridin-2-yl)urea], the values for the IC50 against cyclin D2-Cdk4 and against cyclin D3-Cdk6 were 0.016 µM and 0.013 µM, respectively.
